# Assay results taken from patent publication US20200164005A1, “PHARMACEUTICAL COMPOSITIONS OF A BILE ACID DERIVATIVE AND MICROBIOME AND USES THEREOF” (Intercept Pharmaceuticals, Inc., priority 2017, published 2020).
# Assays:
# [1] = system: bacterial strains found in the human small intestine; assay: Inhibition of bacterial growth by bile acids, microbroth dilution, optical density at 630 nm; assay type: cell-based; details: aerobic or anaerobic
# Description: The toxicity of several bile acids to various gut microbiome species was examined. Representative species were exposed to different bile acids at a range of concentrations under either aerobic or anaerobic condition, and the growth of the species at these concentrations was measured by determining the optical density of the culture.
# Lactobacillus casei CP was purchased from Custom Probiotics Inc. (Glendale, Calif.) as L. casei Custom Probiotic Powder (strain confirmed by Sanger sequencing of the 16S gene). Pediococcus pentosaceus KE-99 was purchased from Probiohealth (Beverly Hills, Calif.) as KE-99 LACTO Tablet (strain confirmed by Sanger sequencing of the 16S gene). L. casei 393, Streptoccocus thermophilus LMD-9, Akkermansia muciniphila Muc, and Veillonella parvula Te3 were purchased from the American Type Culture Collection (ATCC, Manassas, Va.). Lactococcus lactis NZ9000 was purchased from BOCA Scientific (Boca Raton, Fla.). Escherichia coli Nissle was obtained from Dr. Mark Goulian (University of Pennsylvania, Philadelphia, Pa.).
# L. casei, P. pentasaceus, and L. lactis were grown in de Man, Rogosa, and Sharpe (MRS) medium (Anaerobe Systems, Morgan Hill, Calif.); E. coli was grown in lysogeny broth (LB) medium (Fisher Scientific, USA); S. thermophilus and A. muciniphila were grown in brain heart infusion (BHI) medium (Fisher Scientific, USA and Anaerobe Systems, Morgan Hill, Calif.), and; V. parvula was grown in reinforced clostridial medium (Fisher Scientific, USA). Aerobic cultures were incubated at 37° C.; anaerobic cultures were incubated at 37° C. in an anaerobic glove box (Coy Laboratories, Grass Lake, Mich.).
# Glycochenodeoxycholic, glycocholic, and taurocholic acids were purchased from Sigma Aldrich (St. Louis, Mo.). Obeticholic acid was provided by Intercept Pharmaceuticals, Inc. (New York, N.Y.).
# Inhibition of bacterial growth by bile acids was determined by the microbroth dilution method. Plates were prepared with 100 uL of medium containing the appropriate concentrations of bile acid. Wells were inoculated with 1 uL of an overnight culture, covered, and incubated overnight (3 days for A. muciniphila and V. parvula, which are slow growing organisms). Growth was measured via optical density at 630 nm, and measurements were zeroed against wells containing the appropriate bile acid level with no bacteria. All tests were performed in triplicate. Data is expressed as the percent (%) reduction in growth, which was calculated against controls (i.e., no bile acids). The responses of representative species to different concentrations of bile acids are illustrated by the heat maps shown in FIGS. 53A-53D.
# [2] = system: Lactococcus lactis, Streptococcus thermophilus, and Lactobacillus casei/paracasei; assay: Minimal inhibitory concentrations (MIC) of bile acids and OCA, aerobic and anaerobic; assay type: cell-based; details: millimolar range; aerobic and anaerobic
# From the text: FIGS. 58A-58B: Minimal inhibitory concentrations (MICs) of selected Gram-positive bacterial species in response treatment with two endogenous bile acids and OCA. […] N=3 per measurement. […] N=3 per measurement.
# a (Begley et al., FEMS Microbiol Rev. 29, 625-651 (2005)), and conducted genomic analysis is consistent with the notion that specific Gram-positive taxa become proportionally more abundant during OCA administration due to enhanced proliferation. FXR-dependent inhibition of endogenous bile acid synthesis by OCA may reduce the growth inhibitory effects on Gram-positive bacterial species that are normally sensitive to bile acids. To determine if the three bacterial species with the greatest representation of pathways associated with OCA (FIG. 57A) are sensitive to bile acids, the species-specific minimal inhibitory concentrations (MIC) of the two most predominant bile acids in the human small intestine, glycochenodeoxycholic acid (GCDCA) and glycocholic acid (GCA) were determined (FIG. 58A). Since the environment of the small intestinal lumen may transition from an aerobic to anaerobic state along its length (He et al., Proceedings of the National Academy of Sciences of the United States of America, 96, 4586-4591 (1999)), MICs were determined under both aerobic and anaerobic conditions. […] Consistent with this notion, it has been shown that bile salt hydrolases (BSH), enzymes that are unique to bacteria resident in the mammalian gut where they can enhance bile acid tolerance (Begley et al., FEMS Microbiol Rev. 29, 625-651 (2005)), are missing from the genome of S. thermophilus, which is induced by OCA. It can be supported by showing that these species are sensitive to growth inhibition in vitro when exposed to physiologically-relevant concentrations of conjugated bile acids found in the small intestine. […] Since OCA is a bile acid analogue possibly capable of inhibiting bacterial growth, the MICs of OCA for the same bacterial species were determined (FIG. 58B). […] These findings support the notion that OCA treatment leads to the increased growth of bile acid sensitive bacterial taxa by suppressing endogenous bile acid synthesis.
Compound,growth inhibitory effects on various strains of gram positive bacteria [1],growth of all three species at physiologically relevant concentrations [2]
"C[C@H](CCC(=O)NCC(=O)O)[C@H]1CC[C@H]2[C@@H]3[C@H](O)C[C@@H]4C[C@H](O)CC[C@]4(C)[C@H]3C[C@H](O)[C@]12C [GCA, glycocholic acid, reference compound]",differential growth inhibitory effects,significantly inhibited
"CC(CCC(=O)NCC(=O)O)C1CCC2C3C(O)CC4CC(O)CCC4(C)C3CCC12C (centres unmarked) [GCDCA, glycochenodeoxycholic acid, reference compound]",differential growth inhibitory effects,significantly inhibited
"C[C@H](CCC(=O)NCCS(=O)(=O)O)[C@H]1CC[C@H]2[C@@H]3[C@H](O)C[C@@H]4C[C@H](O)CC[C@]4(C)[C@H]3C[C@H](O)[C@]12C [TCA, taurocholic acid]",differential growth inhibitory effects,
